Measured values taken from the supplement of paper PMC10307832.

Legend:
Test in all cases: relative viability (nuclei count vs DMSO), 5 days (fraction); higher = more cells survive
AT-7519 + Decitabine = compound: O=C(NC1CCNCC1)c1n[nH]cc1NC(=O)c1c(Cl)cccc1Cl [AT-7519] + Nc1ncn([C@H]2C[C@H](O)[C@@H](CO)O2)c(=O)n1 [Decitabine] (partner 2 µM)
Procedure, shortened: (§1)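 Lung cancer cell lines were seeded in 1536-well plates and dosed by pin tool the next day, with either a single drug or a fixed anchor-drug dose combined with five library-drug doses (not always all listed) spaced in √10 steps. Five days later, one step fixed the cells and stained their nuclei (final 0.05% Triton X-100, 1% formaldehyde, 1 ug/ml Hoechst), and nuclei were counted on 4× images. Relative viability is the nuclei count in treated wells divided by the count in vehicle wells, and each value is the median of duplicate plates.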

AT-7519 + Crizotinib = compound: O=C(NC1CCNCC1)c1n[nH]cc1NC(=O)c1c(Cl)cccc1Cl [AT-7519] + C[C@@H](Oc1cc(-c2cnn(C3CCNCC3)c2)cnc1N)c1c(Cl)ccc(F)c1Cl [Crizotinib] (partner 1 µM)
Procedure, shortened: as §1

[1] = compound: C1=CC2=C(C=C(C(=C2N=C1)O)N=NC3=CC4=C(C=C3)C=C(C=C4)S(=O)(=O)O)S(=O)(=O)O + CC(=O)c1c(C)c2cnc(Nc3ccc(N4CCNCC4)cn3)nc2n(C2CCCC2)c1=O [Palbociclib] (partner 0.5 µM)
Procedure, shortened: as §1

[2] = compound: C1=CC2=C(C=C(C(=C2N=C1)O)N=NC3=CC4=C(C=C3)C=C(C=C4)S(=O)(=O)O)S(=O)(=O)O + NC(=O)Nc1cc(-c2cccc(F)c2)sc1C(=O)N[C@H]1CCCNC1 [AZD7762] (partner 0.2 µM)
Procedure, shortened: as §1

Cell Line | relative viability (AT-7519 + Decitabine; first compound 0.01 µM) | relative viability (AT-7519 + Decitabine; first compound 0.03162 µM) | relative viability (AT-7519 + Decitabine; first compound 0.3162 µM) | relative viability (AT-7519 + Decitabine; first compound 1 µM) | relative viability (AT-7519 + Crizotinib; first compound 0.01 µM) | relative viability (AT-7519 + Crizotinib; first compound 0.03162 µM) | relative viability (AT-7519 + Crizotinib; first compound 0.3162 µM) | relative viability (AT-7519 + Crizotinib; first compound 1 µM) | relative viability ([1]; first compound 0.08 µM) | relative viability ([1]; first compound 0.253 µM) | relative viability ([1]; first compound 0.8 µM) | relative viability ([1]; first compound 2.53 µM) | relative viability ([1]; first compound 8 µM) | relative viability ([2]; first compound 0.08 µM) | relative viability ([2]; first compound 0.253 µM) | relative viability ([2]; first compound 0.8 µM) | relative viability ([2]; first compound 2.53 µM) | relative viability ([2]; first compound 8 µM)
HARA | 0.526 | 0.531 | 0.819 | 0.441 | 1.03 | 1.1 | 0.974 | 0.786 | 0.249 | 0.244 | 0.277 | 0.221 | 0.245 | 0.384 | 0.261 | 0.267 | 0.362 | 0.469
NCI-H2087 | 0.24 | 0.257 | 0.262 | 0.0751 | 0.801 | 0.868 | 0.894 | 0.171 | 0.238 | 0.213 | 0.199 | 0.215 | 0.191 | 1.31 | 1.51 | 1.27 | 1.38 | 1.29
NCI-H1437 | 0.527 | 0.59 | 0.548 | 0.347 | 0.93 | 1.06 | 0.9 | 0.361 | 0.356 | 0.321 | 0.308 | 0.3 | 0.352 | 1.11 | 1.11 | 1.1 | 1.2 | 1.08
NCI-H1792 | 0.405 | 0.488 | 0.495 | 0.54 | 0.548 | 0.916 | 0.904 | 1.09 | 0.674 | 0.654 | 0.673 | 0.667 | 0.597 | 1 | 0.655 | 0.723 | 0.715 | 0.836
ChaGo-K-1 | 0.534 | 0.526 | 0.519 | 0.461 | 1.08 | 1.12 | 0.792 | 0.743 | 0.974 | 0.948 | 0.931 | 0.903 | 0.853 | 0.933 | 0.82 | 0.845 | 0.892 | 0.721
NCI-H650 | 0.387 | 0.281 | 0.335 | 0.274 | 0.788 | 0.797 | 0.733 | 0.625 | 0.35 | 0.357 | 0.335 | 0.317 | 0.335 | 0.872 | 0.996 | 0.967 | 0.922 | 0.998
LK-2 | 0.23 | 0.276 | 0.298 | 0.266 | 0.229 | 0.235 | 0.251 | 0.227 | 0.768 | 0.529 | 0.626 | 0.77 | 0.721 | 0.549 | 0.345 | 0.369 | 0.452 | 0.285
201T | 0.915 | 0.853 | 0.831 | 0.862 | 1.04 | 1.1 | 1.03 | 1.09 | 0.385 | 0.366 | 0.366 | 0.366 | 0.35 | 0.691 | 0.652 | 0.56 | 0.632 | 0.634
HCC-44 | 0.928 | 0.95 | 0.978 | 1.04 | 0.773 | 0.781 | 0.903 | 0.778 | 1.02 | 0.96 | 0.964 | 1.01 | 0.975 | 1.01 | 1.03 | 0.997 | 1.05 | 1.04
H3255 | 0.721 | 0.58 | 0.573 | 0.57 | 0.942 | 0.838 | 0.849 | 0.756 | 0.303 | 0.313 | 0.334 | 0.344 | 0.313 | 0.893 | 0.881 | 0.89 | 0.939 | 0.899
NCI-H647 | 0.379 | 0.37 | 0.416 | 0.237 | 0.812 | 0.873 | 0.965 | 0.411 | 0.413 | 0.404 | 0.386 | 0.387 | 0.37 | 0.473 | 0.321 | 0.513 | 0.471 | 0.345
NCI-H23 | 0.296 | 0.296 | 0.298 | 0.254 | 0.544 | 0.446 | 0.543 | 0.318 | 0.538 | 0.471 | 0.448 | 0.574 | 0.477 | 0.186 | 0.199 | 0.317 | 0.177 | 0.312
NCI-H1944 | 0.443 | 0.415 | 0.434 | 0.344 | 1.18 | 1.34 | 0.926 | 0.862 | 0.347 | 0.323 | 0.337 | 0.359 | 0.327 | 0.643 | 0.647 | 0.746 | 0.519 | 0.464
NCI-H460 | 0.452 | 0.432 | 0.388 | 0.0681 | 0.858 | 0.9 | 0.608 | 0.0144 | 0.174 | 0.081 | 0.183 | 0.279 | 0.229 | 0.612 | 0.629 | 0.605 | 0.637 | 0.53
EKVX | 0.331 | 0.303 | 0.57 | 0.463 | 0.933 | 0.85 | 0.699 | 0.894 | 0.542 | 0.359 | 0.35 | 0.48 | 0.344 | 0.836 | 0.78 | 0.61 | 0.702 | 0.702
NCI-H358 | 0.202 | 0.193 | 0.198 | 0.112 | 0.544 | 0.544 | 0.458 | 0.0912 | 0.138 | 0.134 | 0.166 | 0.134 | 0.135 | 0.375 | 0.667 | 0.426 | 0.544 | 0.518
EPLC-272H | 0.367 | 0.322 | 0.387 | 0.298 | 0.896 | 0.918 | 0.809 | 0.934 | 0.369 | 0.31 | 0.325 | 0.371 | 0.316 | 0.204 | 0.212 | 0.177 | 0.311 | 0.177
